Measured values as given in paper PMC4965013, “Open Source Drug Discovery with the Malaria Box Compound Collection for Neglected Diseases and Beyond” (PLoS Pathogens, 2016).

Key:
[1] = system: P. falciparum 3D7 trophozoites; assay: Metabolomic fingerprint profiling LC-MS; assay type: cell-based, Plasmodium falciparum; parameters: UDP-D-glucose / ADP-D-glucose: unit not given here; conditions: for Acetyllysine / N-acetyl-L-ornithine / N-carbamoyl-L-aspartate / NADPH / dAMP / dCMP / dTDP / dTMP / dTTP / dihydroorotate / orotate / DLH / DLS/SDL/SID / PD / PEE / PVNF / 3-phosphoglycerate / ADP-D-glucose / ATP / CDP / D-sedoheptulose-1/7-phosphate / FAD / GMP / NAD+ / NADP+ / Octoluse Bisphosphate / Pyroglutamic acid / UDP-D-glucose / UDP-D-glucuronate / UDP-N-acetyl-glucosamine / UDP / UMP / UTP / a-ketoglutarate / citrate/isocitrate / cytidine / dATP / dGMP/AMP / fumarate / glucose-1/6-phosphate / glycerate / guanine / guanosine / hypoxanthine / indole / inosine / nicotinate / ornithine / phosphoenolpyruvate / pyruvate / ribose-phosphate / sarcosine/alanine / sn-glycerol-3-phosphate / succinate/methylmalonic acid / uridine / xanthosine: S2 Table Metabolomics; for Acetyllysine: metabolite Acetyllysine; for N-acetyl-L-ornithine: metabolite N-acetyl-L-ornithine; for N-carbamoyl-L-aspartate: metabolite N-carbamoyl-L-aspartate; for NADPH: metabolite NADPH; for dAMP: metabolite dAMP; for dCMP: metabolite dCMP; for dTDP: metabolite dTDP; for dTMP: metabolite dTMP; for dTTP: metabolite dTTP; for dihydroorotate: metabolite dihydroorotate; for orotate: metabolite orotate; for DLH: peptide DLH; for DLS/SDL/SID: peptide DLS/SDL/SID; for PD: peptide PD; for PEE: peptide PEE; for PVNF: peptide PVNF; for 3-phosphoglycerate: metabolite 3-phosphoglycerate; for ADP-D-glucose: metabolite ADP-D-glucose; for ATP: metabolite ATP; for CDP: metabolite CDP; for CDP / D-sedoheptulose-1/7-phosphate / GMP / Octoluse Bisphosphate / UDP / UMP / UTP / citrate/isocitrate / dGMP/AMP / fumarate / glucose-1/6-phosphate / glycerate / guanine / guanosine / inosine / pyruvate / sarcosine/alanine / succinate/methylmalonic acid / uridine / xanthosine: change in metabolite level after compound treatment; for D-sedoheptulose-1/7-phosphate: metabolite D-sedoheptulose-1/7-phosphate; for FAD: metabolite FAD; for GMP: metabolite GMP; for NAD+: metabolite NAD+; for NADP+: metabolite NADP+; for Octoluse Bisphosphate: metabolite Octoluse Bisphosphate; for Pyroglutamic acid: metabolite Pyroglutamic acid; for UDP-D-glucose: metabolite UDP-D-glucose; for UDP-D-glucuronate: metabolite UDP-D-glucuronate; for UDP-N-acetyl-glucosamine: metabolite UDP-N-acetyl-glucosamine; for UDP: metabolite UDP; for UMP: metabolite UMP; for UTP: metabolite UTP; for a-ketoglutarate: metabolite a-ketoglutarate; for citrate/isocitrate: metabolite citrate/isocitrate; for cytidine: metabolite cytidine; for dATP: metabolite dATP; for dGMP/AMP: metabolite dGMP/AMP; for fumarate: metabolite fumarate; for glucose-1/6-phosphate: metabolite glucose-1/6-phosphate; for glycerate: metabolite glycerate; for guanine: metabolite guanine; for guanosine: metabolite guanosine; for hypoxanthine: metabolite hypoxanthine; for indole: metabolite indole; for inosine: metabolite inosine; for 2_3-Diphosphoglyceric acid / 4-phosphopantothenate / 6-phospho-D-gluconate / FMN / IMP / Pyrophosphate / Sedoheptoluse bisphosphate / cyclic-AMP / glutathione disulfide / lactate / myo-inositol: metabolite level change after treatment; for nicotinate: metabolite nicotinate; for ornithine: metabolite ornithine; for phosphoenolpyruvate: metabolite phosphoenolpyruvate; for pyruvate: metabolite pyruvate; for ribose-phosphate: metabolite ribose-phosphate; for sarcosine/alanine: metabolite sarcosine/alanine; for sn-glycerol-3-phosphate: metabolite sn-glycerol-3-phosphate; for succinate/methylmalonic acid: metabolite succinate/methylmalonic acid; for uridine: metabolite uridine; for xanthosine: metabolite xanthosine
[2] = system: P. falciparum; assay: EC50 listed in S2 Table Metabolomics (used to set the concentration tested); assay type: cell-based; conditions: Plasmodium falciparum; EC50 used for Factor_XEC50 in metabolomics; read-out: EC50_nM

**Q.** What does the source list for `COc1ccc(C2=C(c3ccc(OC)cc3)C3(c4ccccc4)C(=O)C2(c2ccccc2)C2C(=O)N(c4ccc(C)cc4)C(=O)C23)cc1` (stereo not shown) [MMV666101]?
**A.** Acetyllysine [1]: -0.1129; N-acetyl-L-ornithine [1]: 0.1609; N-carbamoyl-L-aspartate [1]: -0.002224; NADPH [1]: -0.9507; dAMP [1]: -0.2629; dCMP [1]: 0.3804; dTDP [1]: 0.03996; dTMP [1]: 0.002701; dTTP [1]: 0.2425; dihydroorotate [1]: 0.3476; orotate [1]: -0.884; DLH [1]: 0.3443; DLS/SDL/SID [1]: 0.3548; PD [1]: 0.01018; PEE [1]: 0.2697; PVNF [1]: 0.3279; 3-phosphoglycerate [1]: -0.07386; ADP-D-glucose [1]: 0.1248; ATP [1]: 0.5165; CDP [1]: 0.04064; D-sedoheptulose-1/7-phosphate [1]: 0.08624; FAD [1]: 0.1013; GMP [1]: 0.6118; NAD+ [1]: -0.01164; NADP+ [1]: 0.3941; Octoluse Bisphosphate [1]: 0.2807; Pyroglutamic acid [1]: 0.2222; UDP-D-glucose [1]: -0.02174; UDP-D-glucuronate [1]: 0.06413; UDP-N-acetyl-glucosamine [1]: 0.01073; UDP [1]: 0.07085; UMP [1]: 0.1142; UTP [1]: 0.03866; a-ketoglutarate [1]: -0.8357; citrate/isocitrate [1]: -1.04; cytidine [1]: 0.3993; dATP [1]: -0.09007; dGMP/AMP [1]: -0.1266; fumarate [1]: -0.05622; glucose-1/6-phosphate [1]: 0.03368; glycerate [1]: -0.6868; guanine [1]: -0.559; guanosine [1]: -0.9392; hypoxanthine [1]: -0.6138; indole [1]: -0.8533; inosine [1]: -0.8697; 2_3-Diphosphoglyceric acid [1]: 0.4338; 4-phosphopantothenate [1]: -0.011; 6-phospho-D-gluconate [1]: 0.058; FMN [1]: 0.02064; IMP [1]: -0.3616; Pyrophosphate [1]: 0.3662; Sedoheptoluse bisphosphate [1]: 0.08206; cyclic-AMP [1]: -0.009901; glutathione disulfide [1]: 0.01065; lactate [1]: -0.9335; myo-inositol [1]: -1.462; nicotinate [1]: -1.016; ornithine [1]: -0.4187; phosphoenolpyruvate [1]: 0.02347; pyruvate [1]: -0.8543; ribose-phosphate [1]: -0.007312; sarcosine/alanine [1]: 0.06192; sn-glycerol-3-phosphate [1]: -0.02979; succinate/methylmalonic acid [1]: -0.01842; uridine [1]: -0.9813; xanthosine [1]: -0.2752; EC50 [2]: 0.148 µM

**Q.** For `CC(C)(C)c1ccc(O)c(CNC2CCCCC2)c1` [MMV665785], which Acetyllysine [1] is on record?
**A.** -3.15

**Q.** And the N-acetyl-L-ornithine [1]?
**A.** -2.311

**Q.** What about the N-carbamoyl-L-aspartate [1] of the same compound?
**A.** -1.546

**Q.** What about the NADPH [1] of the same compound?
**A.** 0.984

**Q.** And the dAMP [1]?
**A.** -0.2403

**Q.** And the dCMP [1]?
**A.** -0.2349

**Q.** And the dTDP [1]?
**A.** -0.5512

**Q.** What about the dTMP [1] of the same compound?
**A.** -0.26

**Q.** And the dTTP [1]?
**A.** 0.1164

**Q.** What about the dihydroorotate [1] of the same compound?
**A.** -0.9762

**Q.** And the orotate [1]?
**A.** -1.456

**Q.** And the DLH [1]?
**A.** -3.579

**Q.** And the DLS/SDL/SID [1]?
**A.** -3.002

**Q.** And the PD [1]?
**A.** -3.491

**Q.** What about the PEE [1] of the same compound?
**A.** -3.582

**Q.** What about the PVNF [1] of the same compound?
**A.** -4.043

**Q.** And the 3-phosphoglycerate [1]?
**A.** 0.5402

**Q.** What about the ADP-D-glucose [1] of the same compound?
**A.** -0.1351

**Q.** What about the ATP [1] of the same compound?
**A.** 0.1038

**Q.** And the CDP [1]?
**A.** 0.1776

**Q.** What about the D-sedoheptulose-1/7-phosphate [1] of the same compound?
**A.** 0.09578

**Q.** And the FAD [1]?
**A.** 0.3792

**Q.** What about the GMP [1] of the same compound?
**A.** -0.7077

**Q.** What about the “NAD+” value [1] of the same compound?
**A.** 1.206

**Q.** And the “NADP+” value [1]?
**A.** 0.3365

**Q.** And the “Octoluse Bisphosphate” value [1]?
**A.** 0.02588

**Q.** What about the Pyroglutamic acid [1] of the same compound?
**A.** -0.2254

**Q.** What about the UDP-D-glucose [1] of the same compound?
**A.** 0.3073

**Q.** What about the UDP-D-glucuronate [1] of the same compound?
**A.** 0.153

**Q.** What about the UDP-N-acetyl-glucosamine [1] of the same compound?
**A.** 0.3019

**Q.** What about the UDP [1] of the same compound?
**A.** -0.1861

**Q.** What about the UMP [1] of the same compound?
**A.** -0.1897

**Q.** What about the UTP [1] of the same compound?
**A.** -0.0004267

**Q.** What about the a-ketoglutarate [1] of the same compound?
**A.** -1.327

**Q.** And the citrate/isocitrate [1]?
**A.** -0.9862

**Q.** What about the cytidine [1] of the same compound?
**A.** 0.6078

**Q.** What about the dATP [1] of the same compound?
**A.** 0.1738

**Q.** What about the dGMP/AMP [1] of the same compound?
**A.** -0.2591

**Q.** And the fumarate [1]?
**A.** -2.071

**Q.** What about the glucose-1/6-phosphate [1] of the same compound?
**A.** 0.2752

**Q.** What about the glycerate [1] of the same compound?
**A.** -0.524

**Q.** And the guanine [1]?
**A.** -0.6198

**Q.** What about the guanosine [1] of the same compound?
**A.** -0.8871

**Q.** What about the hypoxanthine [1] of the same compound?
**A.** -0.2777

**Q.** What about the indole [1] of the same compound?
**A.** -0.4001

**Q.** What about the inosine [1] of the same compound?
**A.** -0.2517

**Q.** What about the 2_3-Diphosphoglyceric acid [1] of the same compound?
**A.** 0.5476

**Q.** And the 4-phosphopantothenate [1]?
**A.** -0.1524

**Q.** What about the 6-phospho-D-gluconate [1] of the same compound?
**A.** 0.3686

**Q.** What about the FMN [1] of the same compound?
**A.** 0.4685

**Q.** And the IMP [1]?
**A.** 0.07164

**Q.** What about the Pyrophosphate [1] of the same compound?
**A.** 0.2456

**Q.** What about the Sedoheptoluse bisphosphate [1] of the same compound?
**A.** 0.06348

**Q.** What about the cyclic-AMP [1] of the same compound?
**A.** -0.9854

**Q.** And the glutathione disulfide [1]?
**A.** -0.1571

**Q.** What about the lactate [1] of the same compound?
**A.** -0.3018

**Q.** And the myo-inositol [1]?
**A.** 0.3826

**Q.** What about the nicotinate [1] of the same compound?
**A.** -0.1953

**Q.** And the ornithine [1]?
**A.** -0.1957

**Q.** And the phosphoenolpyruvate [1]?
**A.** 0.4685

**Q.** What about the pyruvate [1] of the same compound?
**A.** -0.3246

**Q.** What about the ribose-phosphate [1] of the same compound?
**A.** -0.2844

**Q.** What about the sarcosine/alanine [1] of the same compound?
**A.** -1.431

**Q.** What about the sn-glycerol-3-phosphate [1] of the same compound?
**A.** -0.03786

**Q.** And the succinate/methylmalonic acid [1]?
**A.** -0.9733

**Q.** What about the uridine [1] of the same compound?
**A.** -0.6886

**Q.** And the xanthosine [1]?
**A.** -1.575

**Q.** And the EC50 [2]?
**A.** 0.161 µM
